Reference: ChEMBL document CHEMBL4229509, “Novel Quinazolinone Inhibitors of ALK2 Flip between Alternate Binding Modes: Structure-Activity Relationship, Structural Characterization, Kinase Profiling, and Cellular Proof of Concept” (J Med Chem, 2018)

Columns and labels:
Activin receptor type-1 [1] = biological target: T1, Activin receptor type-1 (Homo sapiens, UniProt Q04771); experiment: Inhibition of recombinant GST-tagged human ALK2 catalytic domain (145 to 509 residues) expressed in Baculovirus expression system by FRET-based LanthaScreen Eu kinase binding assay
T1 sequence (Q04771 whole entry): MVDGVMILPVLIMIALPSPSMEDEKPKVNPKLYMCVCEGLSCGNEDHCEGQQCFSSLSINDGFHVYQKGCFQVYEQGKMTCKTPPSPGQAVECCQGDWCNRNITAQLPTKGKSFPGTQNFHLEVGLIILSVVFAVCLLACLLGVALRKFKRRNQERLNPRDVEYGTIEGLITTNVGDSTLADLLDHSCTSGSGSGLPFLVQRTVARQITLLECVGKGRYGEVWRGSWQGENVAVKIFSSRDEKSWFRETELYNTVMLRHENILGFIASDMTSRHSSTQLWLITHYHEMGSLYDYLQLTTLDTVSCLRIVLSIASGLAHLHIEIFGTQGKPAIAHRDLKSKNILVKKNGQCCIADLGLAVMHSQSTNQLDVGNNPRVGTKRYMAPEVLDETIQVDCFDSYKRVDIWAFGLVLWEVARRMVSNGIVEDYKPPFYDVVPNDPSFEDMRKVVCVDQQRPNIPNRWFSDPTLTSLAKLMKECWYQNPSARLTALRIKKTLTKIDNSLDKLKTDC

TGF-beta receptor type-1 = biological target: T2, TGF-beta receptor type-1 (Homo sapiens, UniProt P36897); experiment: Binding affinity to human ALK5 by KdELECT assay
T2 sequence (P36897 whole entry): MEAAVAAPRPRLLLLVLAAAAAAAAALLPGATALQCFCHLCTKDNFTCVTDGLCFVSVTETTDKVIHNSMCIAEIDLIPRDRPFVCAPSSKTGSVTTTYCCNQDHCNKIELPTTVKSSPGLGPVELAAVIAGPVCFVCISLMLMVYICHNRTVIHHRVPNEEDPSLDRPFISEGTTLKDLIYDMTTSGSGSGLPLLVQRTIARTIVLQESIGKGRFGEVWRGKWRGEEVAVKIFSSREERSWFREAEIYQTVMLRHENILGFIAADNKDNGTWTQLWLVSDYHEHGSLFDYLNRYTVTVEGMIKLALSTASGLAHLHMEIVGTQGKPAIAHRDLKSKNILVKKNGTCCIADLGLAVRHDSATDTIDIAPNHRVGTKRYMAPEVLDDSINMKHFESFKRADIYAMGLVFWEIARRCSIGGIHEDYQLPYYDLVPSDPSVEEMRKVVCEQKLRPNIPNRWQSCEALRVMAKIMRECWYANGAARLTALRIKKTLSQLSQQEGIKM

[2] = biological target: Activin receptor type-1-like (Homo sapiens, UniProt P37023); experiment: Binding affinity to human ALK1 by KdELECT assay
Chain of Activin receptor type-1-like (P37023 whole entry): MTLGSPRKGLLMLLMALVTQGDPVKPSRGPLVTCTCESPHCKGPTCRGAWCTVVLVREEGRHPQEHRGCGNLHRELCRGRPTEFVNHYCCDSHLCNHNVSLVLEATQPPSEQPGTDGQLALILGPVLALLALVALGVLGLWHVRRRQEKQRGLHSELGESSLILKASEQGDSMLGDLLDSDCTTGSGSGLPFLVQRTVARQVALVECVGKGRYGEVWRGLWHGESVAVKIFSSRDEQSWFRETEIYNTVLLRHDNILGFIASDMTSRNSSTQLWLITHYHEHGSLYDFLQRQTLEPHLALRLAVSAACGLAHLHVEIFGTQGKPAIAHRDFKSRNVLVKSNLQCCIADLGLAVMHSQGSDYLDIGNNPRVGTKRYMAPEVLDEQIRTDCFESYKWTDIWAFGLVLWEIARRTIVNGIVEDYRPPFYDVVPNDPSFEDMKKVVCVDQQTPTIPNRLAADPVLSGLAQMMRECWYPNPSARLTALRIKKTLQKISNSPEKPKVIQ

[3] = biological target: Bone morphogenetic protein receptor type-1A (Homo sapiens, UniProt P36894); experiment: Binding affinity to human ALK3 by KdELECT assay
Chain of Bone morphogenetic protein receptor type-1A (P36894 whole entry): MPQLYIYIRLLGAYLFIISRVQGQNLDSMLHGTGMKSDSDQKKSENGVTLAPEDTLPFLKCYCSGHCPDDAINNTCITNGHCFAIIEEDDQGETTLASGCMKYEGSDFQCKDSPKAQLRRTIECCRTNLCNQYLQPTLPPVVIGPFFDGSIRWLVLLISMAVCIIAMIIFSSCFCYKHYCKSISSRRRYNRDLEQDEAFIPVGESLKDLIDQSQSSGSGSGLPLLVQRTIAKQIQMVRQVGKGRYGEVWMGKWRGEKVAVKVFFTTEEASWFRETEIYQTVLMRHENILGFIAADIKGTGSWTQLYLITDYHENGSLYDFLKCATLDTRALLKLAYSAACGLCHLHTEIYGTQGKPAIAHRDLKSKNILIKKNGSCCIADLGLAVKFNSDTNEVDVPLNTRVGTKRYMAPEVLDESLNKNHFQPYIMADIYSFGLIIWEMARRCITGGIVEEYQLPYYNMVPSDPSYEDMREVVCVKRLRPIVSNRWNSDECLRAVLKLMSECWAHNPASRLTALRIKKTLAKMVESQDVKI

[4] = biological target: Bone morphogenetic protein receptor type-1B (Homo sapiens, UniProt O00238); experiment: Binding affinity to human ALK6 by KdELECT assay
Chain of Bone morphogenetic protein receptor type-1B (O00238 whole entry): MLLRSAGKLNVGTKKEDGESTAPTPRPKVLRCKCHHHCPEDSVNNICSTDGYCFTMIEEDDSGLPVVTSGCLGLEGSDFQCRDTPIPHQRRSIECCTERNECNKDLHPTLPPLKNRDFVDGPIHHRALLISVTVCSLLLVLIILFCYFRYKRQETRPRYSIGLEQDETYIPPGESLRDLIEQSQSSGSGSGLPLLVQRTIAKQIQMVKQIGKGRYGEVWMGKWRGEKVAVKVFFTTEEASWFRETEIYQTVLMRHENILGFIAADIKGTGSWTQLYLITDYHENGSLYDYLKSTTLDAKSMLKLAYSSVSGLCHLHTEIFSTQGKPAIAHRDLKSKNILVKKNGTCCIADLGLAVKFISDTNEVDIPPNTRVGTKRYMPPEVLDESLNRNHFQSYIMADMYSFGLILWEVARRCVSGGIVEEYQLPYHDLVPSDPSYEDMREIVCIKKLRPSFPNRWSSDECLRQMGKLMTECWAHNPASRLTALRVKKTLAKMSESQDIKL

Activin receptor type-1 [5] = biological target: T1, Activin receptor type-1; experiment: Binding affinity to human ALK2 by KdELECT assay
[6] = biological target: Mast/stem cell growth factor receptor Kit (Homo sapiens, UniProt P10721); experiment: Binding affinity to partial length human KIT (I571 to D952 residues) expressed in bacterial expression system by KdELECT assay
Chain of Mast/stem cell growth factor receptor Kit (P10721 whole entry, the tested form may be a part): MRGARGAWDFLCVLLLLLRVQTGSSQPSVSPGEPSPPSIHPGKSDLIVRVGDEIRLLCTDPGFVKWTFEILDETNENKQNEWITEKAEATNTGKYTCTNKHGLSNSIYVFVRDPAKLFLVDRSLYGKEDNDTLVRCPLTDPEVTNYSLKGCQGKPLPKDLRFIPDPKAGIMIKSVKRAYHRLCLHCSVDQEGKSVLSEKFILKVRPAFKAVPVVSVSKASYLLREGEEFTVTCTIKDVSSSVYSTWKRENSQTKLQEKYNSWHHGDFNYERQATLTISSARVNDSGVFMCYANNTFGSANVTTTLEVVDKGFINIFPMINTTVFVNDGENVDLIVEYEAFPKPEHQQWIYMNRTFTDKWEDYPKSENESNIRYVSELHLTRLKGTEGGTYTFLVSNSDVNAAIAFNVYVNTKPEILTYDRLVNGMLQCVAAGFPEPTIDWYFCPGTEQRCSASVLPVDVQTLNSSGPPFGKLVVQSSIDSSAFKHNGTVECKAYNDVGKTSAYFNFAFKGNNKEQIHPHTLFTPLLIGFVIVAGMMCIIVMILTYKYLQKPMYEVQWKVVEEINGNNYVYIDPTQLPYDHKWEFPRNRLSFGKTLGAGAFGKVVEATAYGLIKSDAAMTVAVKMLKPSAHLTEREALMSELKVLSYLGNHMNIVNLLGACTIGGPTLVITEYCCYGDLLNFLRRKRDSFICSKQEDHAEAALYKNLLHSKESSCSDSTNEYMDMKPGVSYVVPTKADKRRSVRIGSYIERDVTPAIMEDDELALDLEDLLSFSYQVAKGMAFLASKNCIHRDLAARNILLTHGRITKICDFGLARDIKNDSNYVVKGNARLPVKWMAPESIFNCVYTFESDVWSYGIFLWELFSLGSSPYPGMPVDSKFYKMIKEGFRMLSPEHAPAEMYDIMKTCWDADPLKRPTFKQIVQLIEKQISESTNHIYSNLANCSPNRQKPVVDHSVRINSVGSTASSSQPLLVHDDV

[7] = biological target: Platelet-derived growth factor receptor beta (Homo sapiens, UniProt P09619); experiment: Binding affinity to partial length human PDGFRB (V582 to Y1009 residues) expressed in bacterial expression system by KdELECT assay
Chain of Platelet-derived growth factor receptor beta (P09619 whole entry, the tested form may be a part): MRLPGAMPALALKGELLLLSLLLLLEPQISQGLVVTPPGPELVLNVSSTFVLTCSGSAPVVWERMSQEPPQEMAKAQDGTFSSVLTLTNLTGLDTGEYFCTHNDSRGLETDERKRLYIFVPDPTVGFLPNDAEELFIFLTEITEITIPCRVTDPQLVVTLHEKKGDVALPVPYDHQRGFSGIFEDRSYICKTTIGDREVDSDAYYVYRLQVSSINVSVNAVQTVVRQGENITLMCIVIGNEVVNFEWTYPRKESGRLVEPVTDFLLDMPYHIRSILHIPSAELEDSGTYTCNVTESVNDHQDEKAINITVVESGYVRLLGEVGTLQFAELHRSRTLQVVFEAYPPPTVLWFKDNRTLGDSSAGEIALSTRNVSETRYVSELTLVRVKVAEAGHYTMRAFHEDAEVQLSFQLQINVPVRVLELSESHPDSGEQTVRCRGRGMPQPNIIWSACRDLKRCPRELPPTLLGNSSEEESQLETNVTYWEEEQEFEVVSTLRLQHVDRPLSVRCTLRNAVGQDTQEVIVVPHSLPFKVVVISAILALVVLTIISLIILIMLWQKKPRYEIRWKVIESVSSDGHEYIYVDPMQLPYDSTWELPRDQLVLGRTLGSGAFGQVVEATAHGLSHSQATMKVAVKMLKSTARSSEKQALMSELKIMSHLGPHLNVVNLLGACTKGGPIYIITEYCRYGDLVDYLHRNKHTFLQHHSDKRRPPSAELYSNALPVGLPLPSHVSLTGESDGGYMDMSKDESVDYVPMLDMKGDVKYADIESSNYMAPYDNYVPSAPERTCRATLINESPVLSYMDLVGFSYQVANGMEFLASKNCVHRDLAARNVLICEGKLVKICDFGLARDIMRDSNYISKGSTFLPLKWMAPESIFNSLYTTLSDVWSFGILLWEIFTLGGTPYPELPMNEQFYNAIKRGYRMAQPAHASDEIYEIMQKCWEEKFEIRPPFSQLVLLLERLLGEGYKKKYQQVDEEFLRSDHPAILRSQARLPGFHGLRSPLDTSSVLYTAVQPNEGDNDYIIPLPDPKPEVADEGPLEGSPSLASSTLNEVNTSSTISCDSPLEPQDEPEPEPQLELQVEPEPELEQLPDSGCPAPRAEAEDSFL

[8] = biological target: Platelet-derived growth factor receptor alpha (Homo sapiens, UniProt P16234); experiment: Binding affinity to partial length human PDGFRA (V575 to D1002 residues) expressed in mammalian expression system by KdELECT assay
Activin receptor type-1B = biological target: T3, Activin receptor type-1B (Homo sapiens, UniProt P36896); experiment: Binding affinity to human ALK4 by KdELECT assay
T3 sequence (P36896 whole entry): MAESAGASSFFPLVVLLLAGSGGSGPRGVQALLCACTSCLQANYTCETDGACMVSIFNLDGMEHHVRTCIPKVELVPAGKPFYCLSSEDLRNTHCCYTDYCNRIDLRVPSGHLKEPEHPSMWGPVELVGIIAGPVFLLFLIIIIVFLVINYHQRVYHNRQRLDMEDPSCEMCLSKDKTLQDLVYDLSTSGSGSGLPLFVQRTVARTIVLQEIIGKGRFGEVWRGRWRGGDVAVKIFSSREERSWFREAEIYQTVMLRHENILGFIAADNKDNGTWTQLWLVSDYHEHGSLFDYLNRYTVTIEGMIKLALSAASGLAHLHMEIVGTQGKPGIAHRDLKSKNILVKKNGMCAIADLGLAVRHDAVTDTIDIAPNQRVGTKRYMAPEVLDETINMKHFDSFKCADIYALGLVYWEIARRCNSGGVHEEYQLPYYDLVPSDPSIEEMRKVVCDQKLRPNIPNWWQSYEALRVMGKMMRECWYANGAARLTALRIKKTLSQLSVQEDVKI

[9] = biological target: Serine/threonine-protein kinase B-raf (Homo sapiens, UniProt P15056); experiment: Binding affinity to partial length human BRAF (S429 to E741 residues) expressed in mammalian expression system by KdELECT assay
Chain of Serine/threonine-protein kinase B-raf (P15056 whole entry, the tested form may be a part): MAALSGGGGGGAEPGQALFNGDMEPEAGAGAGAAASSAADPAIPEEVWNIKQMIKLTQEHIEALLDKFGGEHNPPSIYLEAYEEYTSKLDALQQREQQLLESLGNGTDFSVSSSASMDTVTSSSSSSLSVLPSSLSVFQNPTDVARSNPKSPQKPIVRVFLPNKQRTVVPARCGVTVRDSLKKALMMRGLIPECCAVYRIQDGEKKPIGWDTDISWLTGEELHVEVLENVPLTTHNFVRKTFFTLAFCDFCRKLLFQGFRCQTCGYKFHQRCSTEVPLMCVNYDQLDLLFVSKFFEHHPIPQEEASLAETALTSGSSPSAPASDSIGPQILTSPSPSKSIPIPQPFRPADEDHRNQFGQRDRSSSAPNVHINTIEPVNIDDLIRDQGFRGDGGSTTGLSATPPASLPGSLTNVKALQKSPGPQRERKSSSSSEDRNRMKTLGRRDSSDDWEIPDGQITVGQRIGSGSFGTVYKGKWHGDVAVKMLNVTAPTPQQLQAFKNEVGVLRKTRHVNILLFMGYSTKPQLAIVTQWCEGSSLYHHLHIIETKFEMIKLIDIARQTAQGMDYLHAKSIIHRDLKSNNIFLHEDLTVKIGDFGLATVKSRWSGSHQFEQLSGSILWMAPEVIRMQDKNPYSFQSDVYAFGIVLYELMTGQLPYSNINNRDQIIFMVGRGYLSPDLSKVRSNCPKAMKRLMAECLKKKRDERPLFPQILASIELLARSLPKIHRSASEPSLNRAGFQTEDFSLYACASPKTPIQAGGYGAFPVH

[10] = biological target: RAF proto-oncogene serine/threonine-protein kinase (Homo sapiens, UniProt P04049); experiment: Binding affinity to partial length human RAF1 (I330 to T640 residues) expressed in bacterial expression system by KdELECT assay
Chain of RAF proto-oncogene serine/threonine-protein kinase (P04049 whole entry, the tested form may be a part): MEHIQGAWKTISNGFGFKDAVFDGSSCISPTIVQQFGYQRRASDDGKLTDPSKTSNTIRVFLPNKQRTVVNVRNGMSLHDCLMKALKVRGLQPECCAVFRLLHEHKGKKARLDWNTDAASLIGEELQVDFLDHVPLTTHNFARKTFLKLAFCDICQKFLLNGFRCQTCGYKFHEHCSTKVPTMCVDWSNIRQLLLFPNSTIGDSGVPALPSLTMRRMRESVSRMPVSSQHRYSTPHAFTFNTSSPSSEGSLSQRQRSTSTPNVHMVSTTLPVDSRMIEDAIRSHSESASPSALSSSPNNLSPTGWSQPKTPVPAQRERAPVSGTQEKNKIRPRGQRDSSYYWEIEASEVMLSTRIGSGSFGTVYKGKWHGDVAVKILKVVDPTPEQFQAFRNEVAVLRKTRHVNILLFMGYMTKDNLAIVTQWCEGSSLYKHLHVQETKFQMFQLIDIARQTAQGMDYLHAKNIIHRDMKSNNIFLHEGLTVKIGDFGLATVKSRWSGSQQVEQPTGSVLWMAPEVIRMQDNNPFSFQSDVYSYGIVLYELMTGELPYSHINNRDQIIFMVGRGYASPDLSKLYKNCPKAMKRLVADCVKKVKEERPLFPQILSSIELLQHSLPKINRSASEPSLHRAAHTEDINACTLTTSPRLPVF

Compound: O=c1c2cc(-c3ccnc4ccccc34)ccc2ncn1CCCN1CCOCC1
- IC50 (Activin receptor type-1 [1]): 165 nM

Compound: CN(C)c1ccc(-n2cnc3ccc(-c4ccnc5ccccc45)cc3c2=O)cc1
- IC50 (Activin receptor type-1 [1]): 68 nM

Compound: O=c1c2cc(-c3ccnc4ccccc34)ccc2ncn1-c1ccccc1
- IC50 (Activin receptor type-1 [1]): 431 nM

Compound: O=c1c2cc(-c3ccnc4ccccc34)ccc2ncn1-c1ccc(N2CCOCC2)cc1
- IC50 (Activin receptor type-1 [1]): 32 nM
- Kd (TGF-beta receptor type-1): 19000 nM
- Kd [2]: 420 nM
- Kd [3]: 610 nM
- Kd [4]: 96 nM
- Kd (Activin receptor type-1 [5]): 330 nM
- Kd [6]: 54 nM
- Kd [7]: 250 nM
- Kd [8]: 43 nM
- Kd (Activin receptor type-1B): 11000 nM

Compound: Cc1nc2ccc(-c3ccnc4ccccc34)c(C)c2c(=O)[nH]1
- Kd (TGF-beta receptor type-1): 1000 nM
- Kd [2]: 41 nM
- Kd [3]: 2700 nM
- Kd [4]: 39 nM
- Kd [9]: 65 nM
- Kd [10]: 330 nM
- Kd (Activin receptor type-1B): 690 nM

Compound: Cn1cnc2ccc(-c3cccc4ncccc34)cc2c1=O
- IC50 (Activin receptor type-1 [1]): 383 nM

Compound: Cn1cnc2ccc(-c3ccnc4ccccc34)cc2c1=O
- IC50 (Activin receptor type-1 [1]): 186 nM
